Like-named read-outs stand apart in the source and are kept apart here.
How the values were obtained:
Experiment in all cases: biochemical
Set-up in all cases: KINOMEscan active site-directed competition binding assay (DiscoveRx), 456 kinases, per cent of control at 300 nM
Conditions in all cases: read-out: Percent of Control (%)
[1] = target: PRKD2 (Homo sapiens, UniProt Q9BZL6)
Outline: (§1)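 Binding was measured with an active site-directed competition binding assay that quantifies compound–kinase interactions. Test compounds were screened at 300 nmol/L across a 456-kinase panel.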

[2] = target: GRK7 (Homo sapiens, UniProt Q8WTQ7)
Outline: as §1

[3] = target: T1, p38-beta (Homo sapiens, UniProt Q15759)
T1 construct: gene MAPK11
Outline: as §1

[4] = target: MET(M1250T) (Homo sapiens, UniProt P08581, M1250T)
Outline: as §1

[5] = target: T2, CDC2L1 (Homo sapiens, UniProt P21127)
T2 construct: gene CDK11B
Outline: as §1

[6] = target: PLK3 (Homo sapiens, UniProt Q9H4B4)
Outline: as §1

[7] = target: T3, DLK (Homo sapiens, UniProt Q12852)
T3 construct: gene MAP3K12
Outline: as §1

[8] = target: PDPK1 (Homo sapiens, UniProt O15530)
Outline: as §1

[9] = target: RIOK3 (Homo sapiens, UniProt O14730)
Outline: as §1

[10] = target: WEE2 (Homo sapiens, UniProt P0C1S8)
Outline: as §1

[11] = target: BTK (Homo sapiens, UniProt Q06187)
Outline: as §1

[12] = target: LIMK2 (Homo sapiens, UniProt P53671)
Outline: as §1

[13] = target: T4, RSK2(Kin.Dom.1-N-terminal) (Homo sapiens, UniProt P51812)
T4 construct: gene RPS6KA3; Kin.Dom.1-N-terminal
Outline: as §1

[14] = target: PIK3CB (Homo sapiens, UniProt P42338)
Outline: as §1

[15] = target: T5, LZK (Homo sapiens, UniProt O43283)
T5 construct: gene MAP3K13
Outline: as §1

[16] = target: CAMK2A (Homo sapiens, UniProt Q9UQM7)
Outline: as §1

[17] = target: PIK3CA(M1043I) (Homo sapiens, UniProt P42336, M1043I)
Outline: as §1

[18] = target: T6, PKAC-alpha (Homo sapiens, UniProt P17612)
T6 construct: gene PRKACA
Outline: as §1

[19] = target: T7, HPK1 (Homo sapiens, UniProt Q92918)
T7 construct: gene MAP4K1
Outline: as §1

[20] = target: CLK4 (Homo sapiens, UniProt Q9HAZ1)
Outline: as §1

[21] = target: T8, IKK-alpha (Homo sapiens, UniProt O15111)
T8 construct: gene CHUK
Outline: as §1

[22] = target: PRKG1 (Homo sapiens, UniProt Q13976)
Outline: as §1

T8 sequence (O15111 whole entry): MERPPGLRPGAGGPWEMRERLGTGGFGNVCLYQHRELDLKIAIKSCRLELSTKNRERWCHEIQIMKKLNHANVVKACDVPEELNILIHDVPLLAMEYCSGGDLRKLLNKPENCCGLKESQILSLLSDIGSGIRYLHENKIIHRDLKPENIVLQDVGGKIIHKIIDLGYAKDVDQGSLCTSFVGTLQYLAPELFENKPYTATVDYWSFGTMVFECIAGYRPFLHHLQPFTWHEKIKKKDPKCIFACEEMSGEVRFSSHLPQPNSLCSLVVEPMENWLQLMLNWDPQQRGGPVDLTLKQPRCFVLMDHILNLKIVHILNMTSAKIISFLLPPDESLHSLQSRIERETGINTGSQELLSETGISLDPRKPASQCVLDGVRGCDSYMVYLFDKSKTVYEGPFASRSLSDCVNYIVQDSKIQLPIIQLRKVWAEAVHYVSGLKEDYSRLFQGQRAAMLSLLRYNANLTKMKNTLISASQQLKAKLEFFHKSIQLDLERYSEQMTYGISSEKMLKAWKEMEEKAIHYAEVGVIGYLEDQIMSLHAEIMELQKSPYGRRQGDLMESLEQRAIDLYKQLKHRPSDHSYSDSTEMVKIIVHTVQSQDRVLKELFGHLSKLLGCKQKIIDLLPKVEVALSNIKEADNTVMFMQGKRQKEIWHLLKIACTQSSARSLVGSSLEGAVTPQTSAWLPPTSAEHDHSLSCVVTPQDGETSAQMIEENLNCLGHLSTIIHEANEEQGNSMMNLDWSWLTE
Chain of PDPK1 (O15530 whole entry): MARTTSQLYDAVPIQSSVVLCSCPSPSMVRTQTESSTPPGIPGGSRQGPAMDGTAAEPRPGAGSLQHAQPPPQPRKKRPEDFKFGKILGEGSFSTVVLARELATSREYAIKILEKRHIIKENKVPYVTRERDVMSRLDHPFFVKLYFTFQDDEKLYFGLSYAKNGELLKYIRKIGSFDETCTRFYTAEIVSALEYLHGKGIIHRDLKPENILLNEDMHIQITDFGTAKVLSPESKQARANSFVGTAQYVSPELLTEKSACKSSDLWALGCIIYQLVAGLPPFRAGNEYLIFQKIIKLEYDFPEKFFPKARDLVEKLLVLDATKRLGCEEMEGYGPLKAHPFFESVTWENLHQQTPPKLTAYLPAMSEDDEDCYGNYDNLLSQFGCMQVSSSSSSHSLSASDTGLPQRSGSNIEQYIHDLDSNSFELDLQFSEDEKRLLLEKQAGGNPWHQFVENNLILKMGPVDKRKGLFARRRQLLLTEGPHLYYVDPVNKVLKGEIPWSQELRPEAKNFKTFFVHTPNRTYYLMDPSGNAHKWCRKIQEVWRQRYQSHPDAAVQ
Chain of PIK3CA(M1043I) (P42336 whole entry M1043I): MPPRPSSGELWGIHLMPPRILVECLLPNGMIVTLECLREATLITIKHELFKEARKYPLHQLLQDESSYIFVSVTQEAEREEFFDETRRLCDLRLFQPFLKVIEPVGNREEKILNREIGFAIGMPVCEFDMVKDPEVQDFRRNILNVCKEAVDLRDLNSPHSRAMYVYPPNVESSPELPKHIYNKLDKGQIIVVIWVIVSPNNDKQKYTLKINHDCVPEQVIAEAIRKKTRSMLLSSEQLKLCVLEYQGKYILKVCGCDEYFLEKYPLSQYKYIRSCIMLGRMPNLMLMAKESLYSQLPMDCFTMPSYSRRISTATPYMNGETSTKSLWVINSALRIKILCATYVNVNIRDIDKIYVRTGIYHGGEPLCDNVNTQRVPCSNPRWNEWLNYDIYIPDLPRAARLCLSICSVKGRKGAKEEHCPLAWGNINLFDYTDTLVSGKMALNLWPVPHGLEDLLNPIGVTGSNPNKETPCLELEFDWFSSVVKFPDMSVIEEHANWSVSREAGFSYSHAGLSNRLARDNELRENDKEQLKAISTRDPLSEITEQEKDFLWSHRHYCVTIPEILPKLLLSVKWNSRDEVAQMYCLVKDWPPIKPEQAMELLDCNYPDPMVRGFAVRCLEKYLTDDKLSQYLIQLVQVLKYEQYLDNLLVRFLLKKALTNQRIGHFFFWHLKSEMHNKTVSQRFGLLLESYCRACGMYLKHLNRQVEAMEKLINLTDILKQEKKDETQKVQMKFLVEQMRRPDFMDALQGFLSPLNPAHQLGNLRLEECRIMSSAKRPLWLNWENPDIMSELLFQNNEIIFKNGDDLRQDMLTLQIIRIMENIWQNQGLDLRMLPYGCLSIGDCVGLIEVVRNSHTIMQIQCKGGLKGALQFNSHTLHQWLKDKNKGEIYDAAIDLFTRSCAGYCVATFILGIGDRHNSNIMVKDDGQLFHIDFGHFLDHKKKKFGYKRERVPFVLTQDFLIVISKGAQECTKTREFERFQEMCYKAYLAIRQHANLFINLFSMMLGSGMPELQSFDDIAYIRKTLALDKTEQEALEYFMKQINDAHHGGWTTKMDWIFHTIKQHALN
T5 sequence (O43283 whole entry): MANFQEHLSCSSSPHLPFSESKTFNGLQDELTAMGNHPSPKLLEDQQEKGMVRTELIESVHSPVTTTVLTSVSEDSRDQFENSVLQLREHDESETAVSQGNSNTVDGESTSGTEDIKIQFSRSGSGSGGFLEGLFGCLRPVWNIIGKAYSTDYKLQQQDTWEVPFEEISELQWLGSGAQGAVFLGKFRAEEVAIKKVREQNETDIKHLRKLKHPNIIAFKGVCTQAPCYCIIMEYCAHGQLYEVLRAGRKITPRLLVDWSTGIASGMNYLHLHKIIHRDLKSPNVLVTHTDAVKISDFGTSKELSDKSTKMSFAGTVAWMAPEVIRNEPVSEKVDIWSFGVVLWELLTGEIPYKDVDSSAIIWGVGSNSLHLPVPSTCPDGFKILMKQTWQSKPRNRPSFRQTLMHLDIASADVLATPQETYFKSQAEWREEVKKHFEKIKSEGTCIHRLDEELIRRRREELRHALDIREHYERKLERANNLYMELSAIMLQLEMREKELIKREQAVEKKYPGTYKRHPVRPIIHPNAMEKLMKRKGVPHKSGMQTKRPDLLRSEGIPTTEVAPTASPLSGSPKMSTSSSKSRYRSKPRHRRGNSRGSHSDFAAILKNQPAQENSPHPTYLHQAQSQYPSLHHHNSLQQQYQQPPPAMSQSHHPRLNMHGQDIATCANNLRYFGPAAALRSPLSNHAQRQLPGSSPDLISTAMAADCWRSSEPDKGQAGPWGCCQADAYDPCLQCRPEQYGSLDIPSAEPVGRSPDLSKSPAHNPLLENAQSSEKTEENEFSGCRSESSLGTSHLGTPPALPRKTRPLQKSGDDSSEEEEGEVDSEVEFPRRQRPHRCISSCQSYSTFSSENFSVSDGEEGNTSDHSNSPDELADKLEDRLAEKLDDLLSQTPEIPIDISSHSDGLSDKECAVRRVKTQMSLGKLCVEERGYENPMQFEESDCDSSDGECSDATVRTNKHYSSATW
Chain of PRKG1 (Q13976 whole entry): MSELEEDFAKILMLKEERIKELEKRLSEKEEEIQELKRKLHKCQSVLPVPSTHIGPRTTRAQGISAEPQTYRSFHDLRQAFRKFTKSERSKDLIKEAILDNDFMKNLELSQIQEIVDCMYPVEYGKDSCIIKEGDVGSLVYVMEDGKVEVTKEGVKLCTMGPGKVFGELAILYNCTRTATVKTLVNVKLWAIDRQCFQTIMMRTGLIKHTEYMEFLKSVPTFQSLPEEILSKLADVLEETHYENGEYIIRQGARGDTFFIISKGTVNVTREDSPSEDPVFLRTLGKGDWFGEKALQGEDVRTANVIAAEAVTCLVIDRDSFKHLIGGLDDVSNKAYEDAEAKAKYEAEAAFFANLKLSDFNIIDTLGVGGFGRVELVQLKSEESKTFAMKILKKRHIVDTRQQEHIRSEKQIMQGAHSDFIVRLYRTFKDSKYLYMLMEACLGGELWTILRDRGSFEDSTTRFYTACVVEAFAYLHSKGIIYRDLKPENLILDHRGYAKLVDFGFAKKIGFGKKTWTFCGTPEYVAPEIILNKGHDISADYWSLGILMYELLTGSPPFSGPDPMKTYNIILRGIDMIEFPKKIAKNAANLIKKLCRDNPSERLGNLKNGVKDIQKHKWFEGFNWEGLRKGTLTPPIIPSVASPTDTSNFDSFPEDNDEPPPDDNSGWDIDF
T1 sequence (Q15759 whole entry): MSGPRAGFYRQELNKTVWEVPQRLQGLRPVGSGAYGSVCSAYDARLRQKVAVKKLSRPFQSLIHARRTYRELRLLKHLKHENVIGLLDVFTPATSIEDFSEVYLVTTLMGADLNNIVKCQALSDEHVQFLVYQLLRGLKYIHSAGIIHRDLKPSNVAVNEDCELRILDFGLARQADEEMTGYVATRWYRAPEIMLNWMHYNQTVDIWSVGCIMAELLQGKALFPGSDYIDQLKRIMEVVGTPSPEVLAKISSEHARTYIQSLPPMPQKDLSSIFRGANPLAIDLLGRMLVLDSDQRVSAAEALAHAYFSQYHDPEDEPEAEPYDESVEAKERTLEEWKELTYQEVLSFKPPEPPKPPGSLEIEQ
Chain of BTK (Q06187 whole entry): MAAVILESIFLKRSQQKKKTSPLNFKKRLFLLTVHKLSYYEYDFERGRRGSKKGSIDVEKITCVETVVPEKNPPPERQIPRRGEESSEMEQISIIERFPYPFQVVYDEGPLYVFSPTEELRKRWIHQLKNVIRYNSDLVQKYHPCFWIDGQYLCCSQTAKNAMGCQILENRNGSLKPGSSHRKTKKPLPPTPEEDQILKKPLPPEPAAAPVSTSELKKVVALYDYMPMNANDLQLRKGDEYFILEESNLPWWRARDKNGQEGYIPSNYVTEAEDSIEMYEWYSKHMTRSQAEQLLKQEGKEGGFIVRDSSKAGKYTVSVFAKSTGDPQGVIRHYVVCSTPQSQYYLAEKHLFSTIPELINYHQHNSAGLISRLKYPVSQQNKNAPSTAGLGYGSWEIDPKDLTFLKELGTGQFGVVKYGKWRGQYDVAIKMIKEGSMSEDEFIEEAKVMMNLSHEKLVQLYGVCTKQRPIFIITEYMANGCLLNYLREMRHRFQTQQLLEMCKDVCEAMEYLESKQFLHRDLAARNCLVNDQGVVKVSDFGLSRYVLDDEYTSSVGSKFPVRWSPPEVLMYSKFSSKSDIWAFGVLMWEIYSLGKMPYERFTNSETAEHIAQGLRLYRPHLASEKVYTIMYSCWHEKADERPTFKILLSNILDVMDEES

O=C(/C=C/c1cnccc1-c1ccc(F)cc1)Nc1ccc(CCc2nnco2)cc1 [T-418, (2E)-3-(4-(4-fluorophenyl)pyridin-3-yl)-N-(4-(2-(1,3,4-oxadiazol-2-yl)ethyl)phenyl)acrylamide]
remaining binding at 0.3 µM ([1]; sheet T-418): 76% | remaining binding at 0.3 µM ([2]; sheet T-418): 80% | remaining binding at 0.3 µM ([3]; sheet T-418): 77% | remaining binding at 0.3 µM ([4]; sheet T-418): 97% | remaining binding at 0.3 µM ([5]; sheet T-418): 92% | remaining binding at 0.3 µM ([6]; sheet T-418): 82% | remaining binding at 0.3 µM ([7]; sheet T-418): 91% | remaining binding at 0.3 µM ([8]; sheet T-418): 64% | remaining binding at 0.3 µM ([9]; sheet T-418): 78% | remaining binding at 0.3 µM ([10]; sheet T-418): 100% | remaining binding at 0.3 µM ([11]; sheet T-418): 79% | remaining binding at 0.3 µM ([12]; sheet T-418): 74% | remaining binding at 0.3 µM ([13]; sheet T-418): 100% | remaining binding at 0.3 µM ([14]; sheet T-418): 96% | remaining binding at 0.3 µM ([15]; sheet T-418): 96% | remaining binding at 0.3 µM ([16]; sheet T-418): 96% | remaining binding at 0.3 µM ([17]; sheet T-418): 100% | remaining binding at 0.3 µM ([18]; sheet T-418): 66% | remaining binding at 0.3 µM ([19]; sheet T-418): 95% | remaining binding at 0.3 µM ([20]; sheet T-418): 100% | remaining binding at 0.3 µM ([21]; sheet T-418): 100% | remaining binding at 0.3 µM ([22]; sheet T-418): 87%

Cc1ncccc1Oc1sc(C(N)=O)c2c1-c1c(cnn1C)CC2 [T-474, 1-methyl-8-((2-methylpyridin-3-yl)oxy)-4,5-dihydro-1H-thieno[3,4-g]indazole-6-carboxamide]
remaining binding at 0.3 µM [1]: 100% | remaining binding at 0.3 µM [2]: 100% | remaining binding at 0.3 µM [3]: 64% | remaining binding at 0.3 µM [4]: 100% | remaining binding at 0.3 µM [5]: 100% | remaining binding at 0.3 µM [6]: 88% | remaining binding at 0.3 µM [7]: 94% | remaining binding at 0.3 µM [8]: 70% | remaining binding at 0.3 µM [9]: 74% | remaining binding at 0.3 µM [10]: 100% | remaining binding at 0.3 µM [11]: 81% | remaining binding at 0.3 µM [12]: 79% | remaining binding at 0.3 µM [13]: 100% | remaining binding at 0.3 µM [14]: 100% | remaining binding at 0.3 µM [15]: 100% | remaining binding at 0.3 µM [16]: 97% | remaining binding at 0.3 µM [17]: 100% | remaining binding at 0.3 µM [18]: 90% | remaining binding at 0.3 µM [19]: 78% | remaining binding at 0.3 µM [20]: 50% | remaining binding at 0.3 µM [21]: 100% | remaining binding at 0.3 µM [22]: 100%

— PMC5862592, “CDK8/19 inhibition induces premature G1/S transition and ATR-dependent cell death in prostate cancer cells” (Oncotarget, 2018)
